Experimental data reported in patent US9717727B2, “Methods of treating and preventing leukemia and other cancers of the blood and bone” (The Trustees of Columbia University in the City of New York, priority 2011, dated 2017).
Where two headings read alike, the source gives them in different places.

Columns and labels:
serum serotonin = assay: Serum serotonin levels by ELISA, EL4 study (Example 9); assay type: in vivo, mice; conditions: leukemic and non-leukemic groups; LP-533401 25 or 200 mg/kg/day oral
Protocol: Mice were treated orally with LP-533401 (25 or 200 mg per kg of body weight per day) or vehicle. Treatments started 15 days before malignant cell injections in all sets of experiments, and continued for the indicated periods of time. LP-533401 was dissolved in polyethylene glycol (PEG) and 5% dextrose or 2.5% glucose (Sigma), and given daily by oral gavage. Mice treated with vehicle were administered, in the same way as LP533401, a solution of PEG and 5% dextrose or 2.5% glucose, daily, by oral gavage. For measurements of serum serotonin levels, mice were briefly exposed to Isoflurane (Baxter) for 30 seconds and blood was collected by cardiac puncture. Similar volumes of blood were collected from different animals for consistency in the clotting times. Serum collection from all mice was done between 9:00 am and 12:00 pm. Blood was allowed to clot on ice for 5 minutes before centrifugation at maximum speed at 4° C. for 10 minutes. The serum supernatant was removed, snap frozen and stored at −80° C. for further analysis. Serum serotonin levels were quantified by ELISA (Serotonin kit, Fitzgerald) according to manufacturer's instructions.

osteoblasts = assay: Histomorphometric bone analysis, EL4 study (Example 9); assay type: in vivo, mice
Protocol: Histomorphometric analyses were performed on vertebral column specimens collected from 2 months old mice using undecalcified sections using the osteomeasure analysis system (Osteometrics). Lumbar vertebrae were dissected, fixed for 24 hours in 10% formalin, dehydrated in graded ethanol series, and embedded in methyl methacrylate resin according to standard protocols (Chappard et al. (1987); Parfitt et al. (1987)).
Bone formation rate (BFR) was analyzed by the calcein double-labeling method. Calcein (Sigma) was dissolved in calcein buffer (0.15 M NaCl, 2% NaHCO3) and administered by an intraperitoneal injection of 25 μg/g body weight, 6 days and 2 days before sacrificing the animals. In experiments evaluating survival rates of animals, bone formation rate was not calculated due to the unknown time of death. Unstained 4-μm sections were used for BFR measurements.
For the analysis of parameters of osteoblast and osteoclast, 4-μm sections were stained with toluidine blue and tartrate-resistant acid phosphatase (TRAP), respectively. Type I collagen content and bone volume over trabecular volume (BV/TV) were analyzed using 7-μm sections by Von Gieson and Von Kossa staining […] respectively in undecalcified sections. Images were taken using a 10× objective on a Leica microscope outfitted with camera. Six to ten animals were analyzed for each group.
Mice were treated orally with LP-533401 (25 or 200 mg per kg of body weight per day) or vehicle. Treatments started 15 days before malignant cell injections in all sets of experiments, and continued for the indicated periods of time. LP-533401 was dissolved in polyethylene glycol (PEG) and 5% dextrose or 2.5% glucose (Sigma), and given daily by oral gavage. Mice treated with vehicle were administered, in the same way as LP533401, a solution of PEG and 5% dextrose or 2.5% glucose, daily, by oral gavage.
Bioluminescence imaging, luciferase intensity measurement, hind-limb paralysis, blood cell counts, bone mass, osteoblast number, bone formation rate and survival were determined as previously described in Examples 2, 3, and 5-7.

[1] = system: hematopoietic compartment; assay: Flow cytometry of hematopoietic cell populations in bone marrow (Example 11); assay type: in vivo, mice
Protocol: Freshly isolated bone marrow cells or spleen cells were resuspended in flow-staining buffer (PBS plus 2% FBS) and the primary conjugated antibodies were added. After 30 minutes incubation at 4° C., the cells were then washed twice before flow cytometry analysis. The following antibodies conjugated with fluorescein isothiocyanate (FITC), Allophycocyanin (APC) phycoerythrin (PE), PE-Cy7, APC-CY7, Pacific Blue, and Alexa 700 were used: Lineage cocktail (B220, CD19, IL-7R chain, CD3, DX5, Gr-1, Ter119, CD71 and CD41), B220 (6B2), CD19 (1D3), IgM (II/41), CD3 (KT31.1), CD4 (GK1.5), CD8 (53-6.7), Gr-1 (8C5), Mac1/CD11b (M1/70), Ter119, CD71 (C2), c-Kit (2B8), Sca-1 (E13-161-7), CD34 (RAM34), FcRII/III (2.4G2) or CD135/Flt-3 (all from Becton Dickinson, San Diego, Calif.).
The cell cycle analysis of LSK cells was determined by staining for 30 min at 37° C. with Hoechst 33342 (Molecular Probes) and pyronin Y (Sigma). Seven-color flow cytometry acquisition was performed using a LSR II flow cytometer (Becton Dickinson) and analysis using FLO-JO software (Treestar, Inc). Cells were gated for size, shape and granularity using forward and side scatter parameters. The positive populations were identified as cells that expressed specific levels of fluorescence activity above the nonspecific auto fluorescence of the isotype control. Nonspecific binding was reduced by preincubation with unconjugated anti-FcRII/III (2.4G2). For Flow sorting EL4-GFP-Luc cells were resuspended in flow staining buffer, and flow sorting was performed using FACSAria (BD). Sorted GFP positive cells were then subsequently cultured for 12 hours and injected into the mice.
The methods used in Example 8 to measure the various cell types were used.
Mice treated as described in Example 9 were examined.

EL4 cells = assay: Injection of EL4 cells pre-treated with LP-533401 or serotonin into syngeneic mice (Example 13); assay type: in vivo; conditions: cells treated before injection; LP-533401 0.1 to 1-fold serum concentration, serotonin 25 to 100 μM
Protocol: EL4 cells and WEH-3B cells, as described in Example 2, were treated with either LP-533401 or serotonin LP-533401 treatments were performed at 0.1 to 1-fold the amount equivalent to the LP-533401 serum concentration in mice treated with this compound. Serotonin was given at concentrations ranging from 25 to 100 μM, doses at which it affects the proliferation of cells expressing serotonin receptors (Kode et al. (2012); Yadav et al. (2008) Serafeim et al. (2003)).
EL4 cells treated with LP-533401 or serotonin were then injected into syngeneic mice as described in Example 2 to monitor leukemia engraftment, as commonly described for evaluating potential direct effects of compounds on leukemia cells (Moellering et al. (2009)).

serotonin = conditions: six consecutive doses, cited from earlier work
[2] = LP-533401 25 or 200 mg/kg/day oral

## Nc1nc(OC(c2ccc(-c3cccc(F)c3)cc2)C(F)(F)F)cc(-c2ccc(C[C@H](N)C(=O)O)cc2)n1 (some centres unmarked) [LP-533401]
Serum serotonin
  decrease in serum serotonin levels compared to vehicle-treated animals: 30%
osteoblasts; EL4 study
  bone resorption: not affected
osteoblasts; [2]
  increase in bone formation rate: 30%
  increase in bone mass: 30%
  increase in osteoblast numbers: 30%
osteoblasts; leukemic mice (EL4)
  leukemia-induced decrease in osteoblast numbers, bone formation rate and trabecular bone volume: inhibited the decrease in osteoblast numbers, bone formation rate, and trabecular bone volume
[1]; healthy and leukemic mice
  numbers of LSK FLT3+ cells: reduced the numbers
[1]; leukemic animals
  B-lymphopoiesis: did not affect
[1]; leukemic mice
  GMP and CMP populations: further suppressed their frequencies
  LSK FLT3+ lymphoid progenitor cell subset (percentage): not affected
  MEP subsets: not affected
  TER119+ erythroid progenitor cells: increased
  increase in CD3+ cells: prevented the increase
  increase in CD11b+GR1+ myeloid cells: limited the increase
  leukemia-induced increase of LSK cells in the bone marrow: hampered
  leukemia-reduced total bone marrow cellularity: not altered
[1]; non-leukemic mice
  CMPs and MEPs: not affected
  GMPs and more mature myeloid cells: decreased
  LSK cells in the bone marrow compared to wild-type: decrease
  Ter119+ erythroid cells: increased
  lymphoid lineage, including B and T cells: no effect
  total bone marrow cellularity: did not affect
EL4 cells
  leukemia outcome (burden and lethality) after injection of pre-treated EL4 cells: neither of the two treatments altered leukemia outcome
serotonin; 30 mg/kg twice per day
  serotonin levels in the small intestine lowered: 55%
serotonin; 90 mg/kg twice per day
  serotonin levels in the small intestine lowered: 70%
serotonin; 30 or 90 mg/kg twice per day
  brain-derived serotonin: unchanged
